Where a name gives a salt, the structure may show the parent alone.
Legend:
EGFR = target: T1, EGFR (Homo sapiens, UniProt P00533); experiment: EGFR substrate phosphorylation assay (HTRF); type: biochemical; conditions: Method (A): Enzyme Mix incubated with compound at 20° C. for 1 hr, reaction started by adding Substrate Mix
T1 construct: made in house; host or cells: baculovirus expression system
Outline: (§1)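 Baculovirus-expressed kinase (0.8 nM EGFR or 10 nM ErbB2 in enzyme mix) with Peptide C 0.8 μM and ATP 20 μM (substrate-mix levels), MOPS pH 7.5, MnCl2; 90 min, 20 °C, HTRF anti-phosphotyrosine. Method A adds 1 h enzyme–compound preincubation; B none. pIC50, final compound 0.00027–47.6 μM.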

ErbB2 = target: T2, ErbB2 (Homo sapiens, UniProt P04626); experiment: ErbB-2 substrate phosphorylation assay (HTRF); type: biochemical; conditions: Method (A): Enzyme Mix incubated with compound at 20° C. for 1 hr, reaction started by adding Substrate Mix
T2 construct: made in house; host or cells: baculovirus expression system
Outline: as §1

HN5 tumor cells = experiment: Method C: Cell Growth Inhibition Assay (CellTiter-Glo), HN5; type: cell-based; conditions: Homo sapiens, 72 h, 3 days, 4-parameter fit
Experimental: (§2) Human breast tumor cells (BT474) were cultured in RPMI (Mediatech 50-011-PB), containing 10% FBS (JRH Biosciences 12176) and 1% penicillin-streptomycin (Invitrogen 15140). Human head and neck tumor cells (HN5) were cultured in high glucose DMEM (Mediatech 50-013-PB) containing 10% FBS and 1% penicillin-streptomycin. Human colon tumor cells (Colo205) were cultured in RPMI (Mediatech 50-020-PB) containing 10% FBS and 1% penicillin-streptomycin. Human melanoma cancer cells (SK-MEL-28) were cultured in EMEM with nonessential amino acids (Mediatech 50-011-PB) containing 10% FBS, 1% sodium pyruvate (JT Baker 3354-04), and 1% penicillin-streptomycin. Human melanoma cancer cells (A375P F11s) were cultured in RPMI (Mediatech 50-020-PB) containing 10% FBS, 1% sodium pyruvate, and 1% penicillin-streptomycin. Human colon cancer cells (HT-29) were cultured in high glucose DMEM (Mediatech 50-013-PB) containing 10% FBS and 1% penicillin-streptomycin. Human melanoma cancer cells (SK-MEL-3) were cultured in McCoy's 5A (50-025-PB) containing 15% FBS, and 1% penicillin-streptomycin. All cell lines were maintained at 37° C. in a humidified 5% CO2, 95% air incubator. Cells were harvested using trypsin/EDTA (Invitrogen 25200), counted using an haemocytometer, and plated. For 96-well assays (using white full-area NUNC plates cat. #136102), cells were plated in 105 μL at the following densities (cells/well): HN5, 500; Colo205, 500; SK-MEL-28, 500; A375P-F11s, 500; HT-29, 500; SK-MEL-3, 500; and BT474, 3000. For 384-well assays (white full-area NUNC plates, cat. #781080), cells were plated in 48 μL at the following densities (cells/well): HN5, 500; Colo205, 500; SK-MEL-28, 500; A375P-F11s, 500; HT29, 500; SK-MEL-3, 500; and BT474, 2000.
(§3) The next day, compounds were diluted as follow: For 96-well assays, 13.5 μL of compound in DMSO were diluted using nine (9) serial 1:3 dilutions of 4.5 μL in 9 μL of DMSO. Medium (270 μl/well of RPMI with 10% FBS and 1% penicillin-streptomycin) was added to the plates. Aliquots (7 μl) were added to cells in the final assay giving a final DMSO concentration of 0.2%. For 384-well assays, 15 μL of compound in DMSO were diluted using nine (9) serial 1:3 dilutions of 5 μL in 10 μL of DMSO, followed by a further dilution of 5 μL of compound with 95 μL of medium, of which 2 μL were added to cells in the final assay giving a final DMSO concentration of 0.2%. Cells were incubated at 37° C., 5% CO2 for 3 days.
(§4) Total ATP was measured (as a surrogate estimate of cell number) using CellTiter-Glo® reagent (Promega G7571). Briefly, plates were removed from the incubator and allowed to equilibrate to room temperature for 30 minutes. CellTiter-Glo® (25 μL or 55 μL for 384-well or 96-well assays, respectively) reagent was added to each well and plates were shaken on an orbital plate shaker for 2 mins. Plates were incubated without shaking for a further 30 mins and read on an LJL Analyst GT reader in luminometer mode with an integration time of 0.5 seconds per well. Percent inhibition of cell growth was calculated relative to DMSO vehicle-treated control wells. Concentration of compound required to give 50% inhibition of vehicle-treated control cell growth (IC50) was interpolated using a 4-parameter fit for determining IC50 using the following equation: Y=A+((B−A)/(1+((C/X)̂D))) where X=IC50.

BT474 tumor cells = experiment: Method C: Cell Growth Inhibition Assay (CellTiter-Glo), BT474; type: cell-based; conditions: Homo sapiens, BT-474, 72 h, 3 days, 4-parameter fit
Colo205 tumor cells = experiment: Method C: Cell Growth Inhibition Assay (CellTiter-Glo), Colo205; type: cell-based; conditions: Homo sapiens, COLO 205, 72 h, 3 days, 4-parameter fit
Outline: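 Cells were seeded at 500 per well and dosed the next day with nine serial 1:3 compound dilutions (0.2% DMSO final), then grown 3 days at 37° C, 5% CO2. ATP was measured by CellTiter-Glo luminescence, and IC50 was interpolated by 4-parameter fit of percent inhibition versus DMSO controls.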

SK-MEL-28 tumor cells = experiment: Method C: Cell Growth Inhibition Assay (CellTiter-Glo), SK-MEL-28; type: cell-based; conditions: Homo sapiens, SK-MEL-28, 72 h, 3 days, 4-parameter fit
Outline: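 500 cells/well; next-day compound, 1:3 serial dilutions, 0.2% DMSO final; 3 d, 37° C, 5% CO2. Readout: CellTiter-Glo luminescence (total ATP as cell-number surrogate). IC50 from 4-parameter fit of % growth inhibition vs vehicle.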

A375P F11s tumor cells = experiment: Method C: Cell Growth Inhibition Assay (CellTiter-Glo), A375P F11s; type: cell-based; conditions: Homo sapiens, 72 h, 3 days, 4-parameter fit
Experimental: as §2, §3, §4

HT-29 tumor cells = experiment: Method C: Cell Growth Inhibition Assay (CellTiter-Glo), HT-29; type: cell-based; conditions: Homo sapiens, HT-29, 72 h, 3 days, 4-parameter fit
Experimental: as §2, §3, §4

SK-MEL-3 tumor cells = experiment: Method C: Cell Growth Inhibition Assay (CellTiter-Glo), SK-MEL-3; type: cell-based; conditions: Homo sapiens, SK-MEL3, 72 h, 3 days, 4-parameter fit
Experimental: as §2, §3, §4

T1 sequence (P00533 25-1210): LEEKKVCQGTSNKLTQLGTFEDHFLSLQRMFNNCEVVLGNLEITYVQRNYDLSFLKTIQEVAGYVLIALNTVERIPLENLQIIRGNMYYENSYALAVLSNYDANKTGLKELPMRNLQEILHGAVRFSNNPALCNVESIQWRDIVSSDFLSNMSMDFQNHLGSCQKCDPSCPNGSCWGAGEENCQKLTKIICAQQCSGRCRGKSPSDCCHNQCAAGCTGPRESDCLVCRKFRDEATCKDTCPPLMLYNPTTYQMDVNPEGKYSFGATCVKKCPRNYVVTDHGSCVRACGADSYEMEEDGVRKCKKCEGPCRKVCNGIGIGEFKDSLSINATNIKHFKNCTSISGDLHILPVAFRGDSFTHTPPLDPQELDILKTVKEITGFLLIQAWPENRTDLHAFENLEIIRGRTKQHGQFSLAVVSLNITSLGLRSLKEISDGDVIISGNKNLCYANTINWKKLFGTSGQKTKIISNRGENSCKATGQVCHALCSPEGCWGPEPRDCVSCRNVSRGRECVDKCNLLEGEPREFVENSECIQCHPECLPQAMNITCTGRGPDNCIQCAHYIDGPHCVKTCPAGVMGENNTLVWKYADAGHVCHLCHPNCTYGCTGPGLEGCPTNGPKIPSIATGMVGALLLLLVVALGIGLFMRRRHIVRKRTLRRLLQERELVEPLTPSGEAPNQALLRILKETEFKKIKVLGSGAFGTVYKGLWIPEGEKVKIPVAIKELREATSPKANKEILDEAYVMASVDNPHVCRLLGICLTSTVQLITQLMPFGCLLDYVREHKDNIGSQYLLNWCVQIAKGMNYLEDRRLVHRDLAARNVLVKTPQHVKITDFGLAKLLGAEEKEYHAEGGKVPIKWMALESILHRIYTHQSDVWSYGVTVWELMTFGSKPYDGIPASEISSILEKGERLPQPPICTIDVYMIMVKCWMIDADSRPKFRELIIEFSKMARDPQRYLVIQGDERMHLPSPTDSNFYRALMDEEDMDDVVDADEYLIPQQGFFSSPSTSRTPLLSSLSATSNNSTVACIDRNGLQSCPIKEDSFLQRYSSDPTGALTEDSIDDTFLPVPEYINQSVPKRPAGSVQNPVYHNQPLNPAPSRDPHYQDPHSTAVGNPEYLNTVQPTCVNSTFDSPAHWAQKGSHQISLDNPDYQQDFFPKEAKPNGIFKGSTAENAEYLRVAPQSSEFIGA
T2 sequence (P04626 23-1255): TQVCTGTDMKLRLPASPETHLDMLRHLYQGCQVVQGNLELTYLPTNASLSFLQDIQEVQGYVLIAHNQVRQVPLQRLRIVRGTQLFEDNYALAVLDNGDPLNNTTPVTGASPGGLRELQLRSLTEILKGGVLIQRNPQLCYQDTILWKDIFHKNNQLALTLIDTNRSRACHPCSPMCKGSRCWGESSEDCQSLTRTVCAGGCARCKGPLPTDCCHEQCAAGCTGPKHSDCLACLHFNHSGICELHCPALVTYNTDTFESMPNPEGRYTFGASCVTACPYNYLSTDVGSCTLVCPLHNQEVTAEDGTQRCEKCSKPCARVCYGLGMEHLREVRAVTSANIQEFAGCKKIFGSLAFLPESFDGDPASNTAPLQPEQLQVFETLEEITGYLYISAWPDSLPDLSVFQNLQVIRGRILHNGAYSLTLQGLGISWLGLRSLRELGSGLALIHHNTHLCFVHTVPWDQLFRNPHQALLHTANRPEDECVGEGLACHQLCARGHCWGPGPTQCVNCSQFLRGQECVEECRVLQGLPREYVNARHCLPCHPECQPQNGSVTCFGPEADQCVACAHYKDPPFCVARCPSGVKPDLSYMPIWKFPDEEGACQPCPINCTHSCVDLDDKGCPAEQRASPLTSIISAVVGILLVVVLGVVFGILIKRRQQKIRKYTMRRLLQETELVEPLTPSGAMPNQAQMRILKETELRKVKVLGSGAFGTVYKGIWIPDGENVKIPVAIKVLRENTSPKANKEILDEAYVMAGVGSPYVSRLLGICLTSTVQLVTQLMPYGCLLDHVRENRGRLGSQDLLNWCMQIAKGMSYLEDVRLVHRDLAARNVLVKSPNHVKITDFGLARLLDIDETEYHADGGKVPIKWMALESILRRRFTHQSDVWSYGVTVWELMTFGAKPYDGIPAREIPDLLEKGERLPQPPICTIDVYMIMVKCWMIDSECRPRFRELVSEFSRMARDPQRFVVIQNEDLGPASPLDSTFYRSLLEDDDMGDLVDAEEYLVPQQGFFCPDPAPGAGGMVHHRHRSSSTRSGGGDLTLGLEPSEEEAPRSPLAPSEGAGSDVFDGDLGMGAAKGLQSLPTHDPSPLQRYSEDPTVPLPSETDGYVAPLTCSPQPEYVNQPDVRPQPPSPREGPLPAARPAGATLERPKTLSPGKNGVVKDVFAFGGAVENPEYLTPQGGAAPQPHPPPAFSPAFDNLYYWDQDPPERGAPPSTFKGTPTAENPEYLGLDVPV

Row | SMILES | IC50 (EGFR) | IC50 (ErbB2) | IC50 (HN5 tumor cells) | IC50 (BT474 tumor cells) | IC50 (Colo205 tumor cells) | IC50 (SK-MEL-28 tumor cells) | IC50 (A375P F11s tumor cells) | IC50 (HT-29 tumor cells) | IC50 (SK-MEL-3 tumor cells)
1 | COc1ccc(Nc2nccc(-c3sc(N)nc3-c3cccc(NC(=O)c4c(F)cccc4F)c3)n2)cc1OCCN(C)C [Example 2] | < 100 nM | < 100 nM | < 100 nM | < 100 nM | < 100 nM | 100 to 1000 nM | 100 to 1000 nM | 100 to 1000 nM | 100 to 1000 nM
2 | CN(C)CCOc1ccc(Nc2nccc(-c3sc(NCCCN4CCOCC4)nc3-c3cccc(NC(=O)c4c(F)cccc4F)c3)n2)cc1Cl [Example 4, N-[3-(5-{2-[(3-Chloro-4-{[2-(dimethylamino)ethyl]oxy}phenyl)-amino]-4-pyrimidinyl}-2-{[3-(4-morpholinyl)propyl]amino}-1,3-thiazol-44)phenyl]-2,6-difluorobenzamide] | < 100 nM | < 100 nM | 100 to 1000 nM | 100 to 1000 nM | 100 to 1000 nM | 100 to 1000 nM | 100 to 1000 nM | 100 to 1000 nM | 100 to 1000 nM
3 | CN(C)CCOc1cccc(Nc2nccc(-c3sc(N4CCCCC4)nc3-c3cccc(NC(=O)c4c(F)cccc4F)c3)n2)c1 [Example 74, N-{3-[5-{2-[(3-{[2-(Dimethylamino)ethyl]oxy}phenyl)amino]-4-pyrimidinyl}-2-(1-piperidinyl)-1,3-thiazol-4-yl]phenyl}-2,6-difluorobenzamide] | < 100 nM | < 100 nM |  | 100 to 1000 nM | 100 to 1000 nM | > 1000 nM | 100 to 1000 nM | 100 to 1000 nM | > 1000 nM
4 | CCc1nc(-c2cccc(NC(=O)c3c(F)cccc3F)c2)c(-c2ccnc(Nc3ccc(N4CCOCC4)nc3)n2)s1 [Example 118, N-{3-[2-Ethyl-5-(2-{[6-(4-morpholinyl)-3-pyridinyl]amino}-4-pyrimidinyl)-1,3-thiazol-4-yl]phenyl}-2,6-difluorobenzamide trifluoroacetate] |  |  | 100 to 1000 nM | 100 to 1000 nM | > 1000 nM | > 1000 nM | > 1000 nM | > 1000 nM | > 1000 nM

Second part, the compound after the results:

Row | IC50 (EGFR) | IC50 (ErbB2) | IC50 (HN5 tumor cells) | IC50 (BT474 tumor cells) | IC50 (Colo205 tumor cells) | IC50 (SK-MEL-28 tumor cells) | IC50 (A375P F11s tumor cells) | IC50 (HT-29 tumor cells) | IC50 (SK-MEL-3 tumor cells) | SMILES
5 | < 100 nM | < 100 nM | < 100 nM | < 100 nM | 100 to 1000 nM | 100 to 1000 nM | 100 to 1000 nM | 100 to 1000 nM | 100 to 1000 nM | CN(C)CCOc1ccc(Nc2nccc(-c3sc(N)nc3-c3cccc(NC(=O)c4c(F)cccc4F)c3)n2)cc1Cl [Example 5, N-(3-{2-Amino-5-[2-({3-chloro-4-[2-(dimethylamino)ethoxy]-phenyl}amino)pyrimidin-4-yl]-1,3-thiazol-4-yl}phenyl)-2,6-difluorobenzamide-formic acid]
6 | < 100 nM | < 100 nM | < 100 nM | < 100 nM | 100 to 1000 nM | 100 to 1000 nM | 100 to 1000 nM | 100 to 1000 nM | 100 to 1000 nM | CN1CCc2ccc(Nc3nccc(-c4sc(N)nc4-c4cccc(NC(=O)c5c(F)cccc5F)c4)n3)cc2C1 [Example 10, trifluoroacetate]
7 | < 100 nM | < 100 nM | < 100 nM | < 100 nM | 100 to 1000 nM | < 100 nM | 100 to 1000 nM | 100 to 1000 nM | 100 to 1000 nM | COc1ccc(Nc2nccc(-c3sc(N)nc3-c3cccc(NC(=O)c4c(F)cccc4F)c3)n2)cc1N1CCN(C)CC1 [Example 11, N-{3-[2-Amino-5-(2-{[4-(methyloxy)-3-(4-methyl-1-piperazinyl)phenyl]amino}-4-pyrimidinyl)-1,3-thiazol-4-yl]phenyl}-2,6-difluorobenzamide trifluoroacetate]
8 | < 100 nM | < 100 nM | < 100 nM | < 100 nM | 100 to 1000 nM | > 1000 nM | 100 to 1000 nM | 100 to 1000 nM | 100 to 1000 nM | CN(C)C1Cc2ccc(Nc3nccc(-c4sc(N)nc4-c4cccc(NC(=O)c5c(F)cccc5F)c4)n3)cc2C1 (stereo not drawn) [Example 12, N-{3-[2-Amino-5-(2-{[2-(dimethylamino)-2,3-dihydro-1H-indeN-5-yl]amino}-4-pyrimidinyl)-1,3-thiazol-4-yl]phenyl}-2,6-difluorobenzamide]
